Earlier results as cited in US20200306292A1, “METHOD FOR TREATING ACUTE HYPOVOLEMIA” (Wonder Spray, LLC, priority 2019, published 2020).

Assays:
[1] = inhalation
[2] = test system: f2 RNA; conditions: naked f2 RNA compared with RNA in intact phage
[3] = test system: E. coli; conditions: (2.6 ppm) HOCl, within 5 minutes
[4] = test system: E. coli; conditions: 50 mM (2.6 ppm) HOCl, within 5 minutes

Q: Which results are given for `OCl` [HOCl, hypochlorous acid]?
A: adverse effects on inhaling the aerosolized form [1]: no adverse effects; inactivation of naked f2 RNA [2]: inactivated naked f2 RNA at the same rate as RNA in intact phage; growth of E. coli [3]: completely inhibited; inhibiting the DNA synthesis [4]: ninety-six
